# Measured values: patent US6465489B1, “Ureidopiperidine derivatives as selective human NK3 receptor antagonists” (Sanofi-Synthelabo, priority 1998, dated 2002)
# System: bronchitic and cough response induced by citric acid
# Experiment: Bronchitic and cough response induced by citric acid in guinea pigs
# Assay type: in vivo, guinea pig
# Conditions: compared with osanetant
# Excerpt: In guinea pigs, the effect on the bronchitic and cough response induced by citric acid has been studied using the model described by S. Daoui et al., in Am. J. Resp. Crit. Care Med., 1998, 158, 42-48. In this test, the Example 10 compound has shown an activity 10 times greater than that of osanetant.
smiles,measurement,value
CN(C)C(=O)NC1(c2ccccc2)CCN(CCCC2(c3ccc(Cl)c(Cl)c3)CCCN(C(=O)c3ccccc3)C2)CC1 (stereo not shown) [Example 10],activity relative to osanetant,10 times
